What all share (assay type): cell-based
One assay relates to Aspergillus niger. Kind of assay: Agar dilution MIC vs Aspergillus niger (trypticase soy agar). Particulars: first screened at 500 ppm. How it is done:
(§1) A tube containing 30 ml of trypticase soy agar was melted and warmed to 45° C. The test compound was added to the tube at a concentration of 0.05% (500 ppm). The mixture was stirred and poured into plates to harden. When hardened, the plates were inoculated with various aerobic and anaerobic organisms. The aerobic plates were incubated at 37° C. for 24 hours and then read for bacterial growth. The same plates were again incubated at 30° C. for an additional 48 hours at which point they were checked for yeast and fungal growth. The anaerobic plates were incubated at 37° C. in an anaerobic chamber and read at 48 hours.
(§2) After the initial readings, compounds showing sufficient activity were re-tested at various concentrations to determine the minimum inhibitory concentration (MIC) of the compounds of the invention against various bacteria and fungi.
Background: In agar dilution, organisms are placed on agar that contains the substance at set levels.

Assay [1] deals with Trichophyton mentagrophytes. Kind of assay: Agar dilution MIC vs Trichophyton mentagrophytes (trypticase soy agar). Particulars: first screened at 500 ppm. How it is done:
as §1, §2

In another assay the test system is Salmonella typhosa. Briefly: Agar dilution MIC vs Salmonella typhosa (trypticase soy agar). Particulars: Salmonella typhosa, first screened at 500 ppm. As for the experimental part:
as §1, §2

For a further assay, the system named is Candida pelliculosa. Briefly: Agar dilution MIC vs Candida pelliculosa (trypticase soy agar). Particulars: first screened at 500 ppm. As for the experimental part:
as §1, §2

Another assay concerns Bacillus subtilis. Kind of assay: Agar dilution MIC vs Bacillus subtilis (trypticase soy agar). Particulars: first screened at 500 ppm. As for the experimental part:
as §1, §2

The next assay has as its system Staphylococcus aureus. Briefly: Agar dilution MIC vs Staphylococcus aureus (trypticase soy agar). Particulars: first screened at 500 ppm. As for the experimental part: as §1, §2
Assay [2] concerns Streptococcus mutans. Briefly: Agar dilution MIC vs Streptococcus mutans (trypticase soy agar). Particulars: first screened at 500 ppm. How it is done: as §1, §2
For assay [3], the system named is Streptococcus mutans. Kind of assay: Acid inhibition in Streptococcus mutans (Trypticase-yeast medium with sucrose, NaOH titration). Particulars: S. mutans, 48 hours at 37° C. How it is done: In still another operation, the acid inhibiting property of these compounds was tested against the known acid producing organism, Streptococcus mutans. Test tubes containing Trypticase-yeast medium with sucrose were inoculated with S. mutans and incubated for 48 hours at 37° C. The tubes were then titrated with 0.1 N sodium hydroxide.

The next assay has as its system Proteus mirabilis. Briefly: Agar dilution MIC vs Proteus mirabilis (trypticase soy agar). Particulars: first screened at 500 ppm. As for the experimental part: as §1, §2
Assay [4] concerns Streptococcus mutans (ATCC 10449). Briefly: MIC and MBC vs Streptococcus mutans, Todd Hewitt broth, standard dilution. Particulars: Streptococcus mutans ATCC 10449, Todd Hewitt broth. How it is done:
In another procedure, the minimum inhibitory concentration (MIC) and minimum bactericidal concentration (MBC) were determined in ppm for various compounds of the invention against the bacteria, Streptococcus mutans (ATCC 10449). The testing was performed using Todd Hewitt broth and standard dilution techniques.

For another assay, the system named is Aspergillus fumigatus. Kind of assay: Agar dilution MIC vs Aspergillus fumigatus (trypticase soy agar). Particulars: first screened at 500 ppm. As for the experimental part:
as §1, §2

The subject of another assay is Escherichia coli. Briefly: Agar dilution MIC vs Escherichia coli (trypticase soy agar). Particulars: first screened at 500 ppm. As for the experimental part: as §1, §2

As to `COC(=O)c1ccc2c(c1)[I+]c1cc(C(=O)O)ccc1O2` [3(b), 3-carboxy-7-(methoxycarbonyl)-phenoxiodinin-5-ium bromide monohydrate], the “Minimum inhibitory concentration, An” value in the assay on Aspergillus niger is 500 PPM. Further, in assay [1] (monohydrate), the “Minimum inhibitory concentration, Tm” value was 100 PPM. Further, the “Minimum inhibitory concentration, St” value in the assay on Salmonella typhosa (monohydrate) is 5 PPM. Further, in the assay with Candida pelliculosa, the “Minimum inhibitory concentration, Cp” value was 500 PPM. In the assay on Bacillus subtilis (monohydrate), the “Minimum inhibitory concentration, Bs” value is reported as 0.5 PPM. In addition, the “Minimum inhibitory concentration, Sa” value in the assay with Staphylococcus aureus (monohydrate) is on record as 1.0 PPM. In the assay on Streptococcus mutans [2] (monohydrate), the “Minimum inhibitory concentration, Sm” value turned out to be 10 PPM. In the assay with Streptococcus mutans [3], the “Acid Inhibition (minimum concentration which prevented acid formation)” value was 1.0 ppm. In the assay with Proteus mirabilis (monohydrate), the “Minimum inhibitory concentration, Pm” value was determined as 5 PPM. Also, in assay [4] (monohydrate), the “MBC (minimum bactericidal concentration)” value was 1.0 ppm and the MIC is reported as 2.0 ppm. Besides, in the assay on Aspergillus fumigatus (monohydrate), the “Minimum inhibitory concentration, Af” value is on record as 100 PPM. Besides, the “Minimum inhibitory concentration, Ec” value in the assay with Escherichia coli (monohydrate) is reported as 5 PPM.
For the compound `COC(=O)c1ccc2c(c1)[I+]c1cc(C(=O)O)ccc1O2` [3(c)], the “Minimum inhibitory concentration, An” value in the assay on Aspergillus niger is on record as 500 PPM. Also, in assay [1], the “Minimum inhibitory concentration, Tm” value was determined as 100 PPM. Also, the “Minimum inhibitory concentration, St” value in the assay on Salmonella typhosa was determined as 5 PPM. The “Minimum inhibitory concentration, Cp” value in the assay with Candida pelliculosa is listed as 500 PPM. For the same compound, the “Minimum inhibitory concentration, Bs” value in the assay on Bacillus subtilis came out at 0.5 PPM. Further, the “Minimum inhibitory concentration, Sa” value with Staphylococcus aureus is listed as 1.0 PPM. In the assay on Streptococcus mutans [2], the “Minimum inhibitory concentration, Sm” value was 500 PPM. The “Acid Inhibition (minimum concentration which prevented acid formation)” value with Streptococcus mutans [3] is listed as 1.0 ppm. For the same compound, the “Minimum inhibitory concentration, Pm” value with Proteus mirabilis is 5 PPM. In addition, in assay [4], the “MBC (minimum bactericidal concentration)” value is 2.0 ppm and the MIC amounted to 1.0 ppm. In the assay on Aspergillus fumigatus, the “Minimum inhibitory concentration, Af” value worked out at 100 PPM. Also, in the assay with Escherichia coli, the “Minimum inhibitory concentration, Ec” value is recorded as 5 PPM.
